Results published in PMC11975549, “Development of Potent Type V MAPK Inhibitors: Design, Synthesis, and Biological Evaluation of Benzothiazole Derivatives Targeting p38α MAPK in Breast Cancer Cells” (Archiv Der Pharmazie, 2025).
Several values for one entry are separate records, joined by “and”; a condition that tells them apart may be missing. Equal entries are not always repeated. Where two headings read alike, the source gives them in different places.

Columns and labels:
p38α MAPK [1] = settings: cited from earlier work
p38 MAPKα = experiment: p38 MAPK alpha ELISA, total level in treated MCF7 cells normalised to total protein (BCA); format: cell-based, human; settings: MCF7 cells exposed to compound
Text: To account for variations in protein quantities among the cells. The total protein concentrations in cells subjected to the drugs were quantified. The p38 MAPKα levels were adjusted by dividing by the protein levels, yielding results represented as ng/μg protein (Table 3).
A bicinchoninic acid (BCA) protein assay kit (catalog no. 23227) was obtained from Thermo‐Fisher Scientific (IL, USA) and used to detect total protein by the BCA assay. In this assay, the reaction between BCA, Cu²⁺ ions, and Cu⁺ ions form a purple complex in alkaline conditions. The absorbance of this complex was measured at 562 nm, and the results were expressed in mg/mL.
The p38 MAPK alpha ELISA Kit (ab221012; Abcam, Cambridge, MA) was used to measure the levels of […] in cell lysates according to the manufacturer's instructions. The SimpleStep Enzyme‐Linked Immunosorbent Assay (ELISA) kit was designed to assess total p38 MAPKα protein semi‐quantitatively. The SimpleStep ELISA uses a reporter‐conjugated detection antibody, and an affinity‐tag labeled capture antibody to immunocapture the sample analyte in solution. An anti‐tag antibody coating the well immobilizes the entire complex (capture antibody, analyte, and detection antibody).
Samples or controls were added to the wells, followed by the Antibody Cocktail to complete the test. After incubation, the wells were washed to remove unbound material. […] The levels of MAPK were normalized to total protein content.

MDA‐MB‐231 cells = experiment: MTT antiproliferative assay, MDA-MB-231; format: cell-based, human; settings: for IC50: MTT, 24 h incubation; for Selectivity MDA‐MB‐231: Selectivity index = L929 IC50 / MDA‐MB‐231 IC50 (24 h)
Procedure: (§1) Cell culture experiments were performed to assess the antiproliferative efficacy of the synthesized benzothiazole compounds on the MCF7 and MDA‐MB‐231 cell lines. The anticancer activity of the compounds were compared with the L929 healthy cell line as a control. Doxorubicin and cisplatin, the anticancer agents, were employed as positive controls.
(§2) Human epithelial breast adenocarcinoma (MDA‐MB‐231) (ATCC® HTB‐26™), human epithelial breast adenocarcinoma (MCF7) (ATCC® HTB‐22™), and healthy mouse fibroblast (L929) (ATCC® CRL‐10317™) cells were obtained commercially from ATCC.
(§3) MDA‐MB‐231, MCF7, and L929 cells were seeded in 25 cm² flasks. DMEM medium containing 10% FBS, 1% Penicillin‐Streptomycin, L‐Glutamine, and NaHCO₃ was used as the cell culture medium. The cells were incubated and propagated at 37°C in an environment containing 5% CO₂ and 95% humidity. When the cells reached 80%–90% confluency, they were passaged to different media. During passaging, DMEM was first withdrawn, and the cells were washed with PBS to remove FBS from the medium. Then, Trypsin‐EDTA solution was added to the flask to detach the cells, and the flask was kept in a CO₂ incubator for approximately 1 min. To stop the activity of Trypsin‐EDTA medium containing FBS was added to the flask. The cells were collected into a Falcon tube and centrifuged at 800 rpm for 5 min at room temperature. The supernatant was discarded, and the cell pellet was resuspended in the medium and seeded on cell culture plates according to the experimental protocol.
(§4) A total of 2 mg of each compound was dissolved in an appropriate amount of dimethyl sulfoxide (DMSO) to prepare 10 mM stock solutions. These stock solutions were then diluted to create 100 μM intermediate stocks and stored at −80°C. Commercially purchased cisplatin and doxorubicin HCl (Sigma, St. Louis, MO) were dissolved in DMSO following the manufacturer's protocol to create 20 mM stock solutions. These standard drug molecules were diluted from the stock solution, divided into 100 μM aliquots, and stored at –80°C until use.
(§5) MTT analysis was performed to evaluate the in vitro cytotoxicity of the synthesized compounds against different cancer cell lines. Cells used in the cytotoxicity experiments were cultured in DMEM medium supplemented with 10% FBS. Cells suspended in the medium (2 × 10⁴ cells/mL) were seeded into 96‐well culture plates and incubated at 37°C in a 5% CO₂ incubator. After 12 h, compounds were added at different doses (2 µL) to cells (2 × 10⁴) in the 96‐well plates and incubated at 37°C for 24 h.
(§6) The incubated cells were then treated with 20 µL of MTT solution and incubated at 37°C for 4 h. The supernatant was carefully removed from each well, and 100 µL of DMSO was added to each well to dissolve the formazan crystals formed by the cellular reduction of MTT. The absorbance was measured at 570 nm using an ELISA reader. […] At the end of the experiment, the device calculated the IC50 value for each well, and the average values were recorded. Each experiment was performed in at least three replicates.

L929 cells = experiment: MTT cytotoxicity assay, L929 healthy cells; format: cell-based; settings: healthy mouse fibroblast
Procedure: as §1, §2, §3, §4, §5, §6

MCF7 cells = experiment: MTT antiproliferative assay, MCF7; format: cell-based, human; settings: for IC50: MTT, 24 h incubation; for Selectivity MCF7: Selectivity index = L929 IC50 / MCF7 IC50 (24 h)
Procedure: as §1, §2, §3, §4, §5, §6

MDA‐MB‐231 cell line = test system: MDA‐MB‐231 cell line; set-up: method as in PMID 30792101; settings: MTT assay; cited from earlier work
MCF7 cell line = test system: MCF7 cell line; set-up: method as in PMID 30792101; settings: MTT assay; cited from earlier work
normal prostate cells = test system: normal prostate cells; set-up: method as in PMID 31838901; settings: cited from earlier work
prostate cancer cells = test system: prostate cancer cells; set-up: method as in PMID 31838901; settings: cited from earlier work
p38α MAPK [2] = test system: p38α MAPK; set-up: method as in PMID 34894967; settings: MCF‐7 cells; cited from earlier work
HeLa cells = test system: HeLa cells; set-up: method as in PMID 34328852; settings: cited from earlier work
p38α MAPK [3] = test system: p38α MAPK; set-up: method as in PMID 34328852; settings: HeLa cells, compared with the control anisomycin (30 μM); cited from earlier work

IC50 (MDA‐MB‐231 cells; Homo sapiens, MDA-MB-231) | IC50 (MCF7 cells; Homo sapiens, MCF7) | SMILES | Total p38α MAPK levels (p38 MAPKα) | Selectivity MDA‐MB‐231 (MDA‐MB‐231 cells) | Selectivity MCF7 (MCF7 cells) | IC50 (L929 cells; L929, 24 h incubation) | also measured
– | – | Clc1cccc(Cl)c1Nc1ccccc1Cc1nncn1Nc1nc2ccccc2s1 [Compound 12l] | – | – | – | – | IC50 (p38α MAPK [1]; read-out: IC50 p38α MAPK): 0.036 µM
– | – | O=C(CSc1nnc(COc2ccccc2)n1-c1ccc(F)cc1)Nc1nc2ccccc2s1 [Compound 13m] | – | – | – | – | IC50 (p38α MAPK [1]; read-out: IC50 p38α MAPK): 0.031 µM
– | – | CCNC(=O)c1ccc(C)c(NC(=O)c2ccc3c(-c4ccc(Cl)cc4)n[nH]c3c2)c1 [Compound 11k, 3‐(4‐chlorophenyl)‐N‐(5‐(ethylcarbamoyl)‐2‐methylphenyl)‐1H‐indazole‐6‐carboxamide] | – | – | – | – | IC50 (p38α MAPK [1]; read-out: IC50 p38α MAPK): 3.37 ± 0.24 µM
– | – | COc1cccc(-c2nn(-c3ccccc3)cc2-c2ccncc2)c1 [Compound 4d] | – | – | – | – | IC50 (p38α MAPK [1]; relative selectivity in comparison to 15 other kinases, read-out: IC50 p38α): 0.515 µM
– | – | O=C(Cc1ccc(F)cc1)Nc1nc2ccccc2s1 [Compound 22, N‐(Benzo[d]thiazol‐2‐yl)‐2‐(4‐fluorophenyl) acetamide] | 3.952 ± 0.311 ng/μg protein | 55.413 | 41.697 | – | IC50 (MDA‐MB‐231 cells): 3.8 ± 0.28 µM; IC50 (L929 cells; 24 h incubation): 210.6 ± 1.67 µM; IC50 (MCF7 cells): 5.05 ± 0.01 µM
– | – | CS(=O)(=O)CCNCc1ccc(-c2ccc3ncnc(Nc4ccc(OCc5cccc(F)c5)c(Cl)c4)c3c2)o1 [lapatinib] | – | – | – | – | IC50 (MDA‐MB‐231 cell line): 4.69 µM; IC50 (MCF7 cell line): 4.69 µM
15.8 ± 0.75 µM | 11 ± 0.27 µM | COc1ccc(C(=O)Nc2nc3ccccc3s2)cc1 [Compound 1, N‐(Benzo[d]thiazol‐2‐yl)‐4‐methoxybenzamide] | 7.367 ± 1.291 ng/μg protein | 1.549 | 2.227 | 24.5 ± 0.56 µM | –
– | – | COc1c(C(=O)/C=C/c2ccc(C)o2)c(O)c(Br)c2occc12 [Compound 9i] | – | – | – | – | IC50 (MDA‐MB‐231 cell line): 2.09 µM; IC50 (MCF7 cell line): 1.35 µM; IC50 (p38α MAPK [1]; read-out: IC50 p38α MAP kinase): 0.04 µM
16 ± 0.68 µM | 10.6 ± 0.16 µM | O=C(NCc1nc2ccccc2s1)c1cccs1 [Compound 14, N‐(Benzo[d]thiazol‐2‐ylmethyl) thiophene‐2‐carboxamide] | 0.199 ± 0.011 ng/μg protein | 1.391 | 2.096 | 22.2 ± 0.68 µM | –
– | – | COc1cccc(CC(=O)Nc2nc3ccccc3s2)c1 [Compound 21, N‐(Benzo[d]thiazol‐2‐yl)‐2‐(3‐methoxyphenyl) acetamide] | 1.333 ± 0.007 ng/μg protein | 10.330 | 9.354 | – | IC50 (MDA‐MB‐231 cells): 6.42 ± 0.07 µM; IC50 (L929 cells; 24 h incubation): 66.3 ± 1.82 µM; IC50 (MCF7 cells): 7.09 ± 0.02 µM
– | – | COc1cccc(CNC(=O)c2ccc(N3CCOCC3)c(NC(=O)Nc3ccc(F)cc3F)c2)c1 [Compound 5e] | – | – | – | – | damage to normal prostate cells (normal prostate cells): without causing considerable damage; viability, proliferation and migration of prostate cancer cells (prostate cancer cells): inhibited the viability and reduced the proliferation and migration
– | – | Cc1ccc(C(=O)/C=C/c2ccc(Oc3ccc(Br)cc3)cc2)cc1 [Compound 10j] | – | – | – | – | total p38α MAPK and phosphorylated enzyme levels (p38α MAPK [2]): reduced
13.5 ± 0.54 µM | 5.64 ± 0.34 µM | O=C(NCc1nc2ccccc2s1)c1ccccc1 [Compound 10, N‐(Benzo[d]thiazol‐2‐ylmethyl) benzamide] | 0.535 ± 0.079 ng/μg protein | 3.019 | 7.238 | 40.82 ± 0.12 µM | –
– | – | COc1c(-c2cc(-c3ccc(F)cc3)c(C#N)c(=N)[nH]2)c(O)c(Br)c2occc12 [Compound 8h] | – | – | – | – | IC50 (p38α MAPK [1]; read-out: IC50 p38α MAPK): 0.27 µM
10.74 ± 0.03 µM | 6.19 ± 1.05 µM | O=C(Cc1ccccc1)Nc1nc2ccccc2s1 [Compound 19, N‐(Benzo[d]thiazol‐2‐yl)‐2‐phenylacetamide] | 0.112 ng/μg protein and 0.112 ± 0.001 ng/μg protein | 8.744 | 15.171 | 93.9 ± 1.9 µM | –
11.78 ± 0.11 µM | 8.83 ± 0.43 µM | O=C(NCc1nc2ccccc2s1)c1ccco1 [Compound 15, N‐(Benzo[d]thiazol‐2‐ylmethyl) furan‐2‐carboxamide] | 0.155 ng/μg protein and 0.155 ± 0.045 ng/μg protein | 2.272 | 3.031 | 26.8 ± 0.84 µM | –
– | – | COc1c(-c2cc(-c3ccc(C)o3)c(C#N)c(N)n2)c(O)c(Br)c2occc12 [Compound 6f] | – | – | – | – | IC50 (p38α MAPK [1]; read-out: IC50 p38α MAP kinase): 0.04 µM
17 ± 0.67 µM | 11.2 ± 0.49 µM | O=C(Nc1nc2ccccc2s1)c1ccc(F)cc1 [Compound 2, N‐(Benzo[d]thiazol‐2‐yl)‐4‐fluorobenzamide] | 3.879 ± 0.868 ng/μg protein | 1.239 | 1.884 | 21.02 ± 0.21 µM | –
– | – | O=c1oc2ccccc2c(O)c1C1=CC(c2ccc(F)cc2)NC(=S)N1 (centres unmarked) [Compound 7g] | – | – | – | – | reduction in cell viability (HeLa cells; 10 μM): 80%; reduction in cell viability (HeLa cells; 30 μM): 72%; suppression of p38α MAPK activation (p38α MAPK [3]): 0.64
